Among the data in patent US8501786B2, “Hydroxymethyl pyrrolidines as beta 3 adrenergic receptor agonists” (Merck Sharp & Dohme Corp., priority 2009, dated 2013) are EC50 values, retold here.

Where a name gives a salt, the structure may show the parent alone.

The target of one assay is T1, human β3 adrenergic receptor (Homo sapiens, UniProt P13945).
T1 construct: stably transfected with the cloned β-adrenergic receptor (β1, β2 or β3); expressed in transfected cells; host or cells: Chinese hamster ovary (CHO) cells, stably transfected
T1 sequence (P13945 whole entry): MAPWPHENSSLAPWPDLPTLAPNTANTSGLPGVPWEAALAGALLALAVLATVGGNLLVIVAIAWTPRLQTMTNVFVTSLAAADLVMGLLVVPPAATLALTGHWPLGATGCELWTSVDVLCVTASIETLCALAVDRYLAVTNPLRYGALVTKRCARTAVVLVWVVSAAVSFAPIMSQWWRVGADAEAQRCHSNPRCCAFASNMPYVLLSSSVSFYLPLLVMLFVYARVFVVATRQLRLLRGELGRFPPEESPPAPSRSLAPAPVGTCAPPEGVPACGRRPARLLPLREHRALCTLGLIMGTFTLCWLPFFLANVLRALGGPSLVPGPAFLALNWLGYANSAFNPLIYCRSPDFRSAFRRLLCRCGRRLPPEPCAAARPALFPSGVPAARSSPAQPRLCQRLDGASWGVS
Nature of the assay: Functional assay: cAMP production (LANCE TR-FRET) in CHO cells stably transfected with cloned β3 adrenergic receptor. Type of assay: cell-based. The conditions noted are these: Table 2; cAMP production, CHO cells expressing human β3 AR; read-out: Human β3 functional. For orientation: Changes in cAMP serve as a functional read-out for many G protein-coupled receptors.
For `CNc1ncncc1CC(=O)Nc1ccc(CC2CC[C@H]([C@H](O)c3cccnc3)N2)cc1` (stereo partly shown) [Example 50], the EC50 lay in the range of 101 to 1000 nM.

As to `COc1cc2ncn(CC(=O)Nc3ccc(CC4CC[C@H]([C@H](O)c5cccnc5)N4)cc3)c(=O)c2cc1OC` (stereo partly shown) [Example 51], the EC50 lay within 1 to 10 nM.

For `O=C(Cn1ncccc1=O)Nc1ccc(CC2CC[C@H]([C@H](O)c3cccnc3)N2)cc1` (stereo partly shown) [Example 52], the EC50 fell in the range of 1 to 10 nM.

Consider `O=C(Cn1cnccc1=O)Nc1ccc(CC2CC[C@H]([C@H](O)c3cccnc3)N2)cc1` (stereo partly shown) [Example 53], for which the EC50 lay within 1 to 10 nM.

Consider `O=C(Nc1ccc(CC2CC[C@H]([C@H](O)c3cccnc3)N2)cc1)c1c[nH]c2cccnc12` (stereo partly shown) [Example 54], for which the EC50 was in the range of 101 to 1000 nM.

For `O=C(Cc1nnn[nH]1)Nc1ccc(CC2CC[C@H]([C@H](O)c3cccnc3)N2)cc1` (stereo partly shown) [Example 55], the EC50 was in the range of 11 to 100 nM.

Consider `NC(=O)c1nn(CC(=O)Nc2ccc(CC3CC[C@H]([C@H](O)c4cccnc4)N3)cc2)c(=O)c2ccccc12` (stereo partly shown) [Example 56], for which the EC50 was in the range of 1 to 10 nM.

With `O=C(Cn1c(=O)[nH]c(=O)c2ccccc21)Nc1ccc(CC2CC[C@H]([C@H](O)c3cccnc3)N2)cc1` (stereo partly shown) [Example 57], the EC50 was in the range of 1 to 10 nM.

As to `O=C(Cn1c(=O)cnc2ccccc21)Nc1ccc(CC2CC[C@H]([C@H](O)c3cccnc3)N2)cc1` (stereo partly shown) [Example 58], the EC50 was in the range of 1 to 10 nM.

Turning to `Cc1cccc2c(=O)n(CC(=O)Nc3ccc(CC4CC[C@H]([C@H](O)c5cccnc5)N4)cc3)cnc12` (stereo partly shown) [Example 59], the EC50 is 1 to 10 nM.

As for `O=C(Cn1cccnc1=O)Nc1ccc(CC2CC[C@H]([C@H](O)c3cccnc3)N2)cc1` (stereo partly shown) [Example 60], the EC50 was in the range of 1 to 10 nM.

Take `O=C(Cn1ccc(=O)[nH]c1=O)Nc1ccc(CC2CC[C@H]([C@H](O)c3cccnc3)N2)cc1` (stereo partly shown) [Example 61]: the EC50 fell in the range of 1 to 10 nM.

As for `Cc1cn(CC(=O)Nc2ccc(CC3CC[C@H]([C@H](O)c4cccnc4)N3)cc2)c(=O)[nH]c1=O` (stereo partly shown) [Example 62], the EC50 was in the range of 11 to 100 nM.

For `O=C(Cn1ccncc1=O)Nc1ccc(CC2CC[C@H]([C@H](O)c3cccnc3)N2)cc1` (stereo partly shown) [Example 63], the EC50 is 11 to 100 nM.

Take `O=C(Cn1c(=O)[nH]c2ccccc2c1=O)Nc1ccc(CC2CC[C@H]([C@H](O)c3cccnc3)N2)cc1` (stereo partly shown) [Example 65]: the EC50 fell in the range of 1 to 10 nM.

Turning to `O=C(Cn1nc(Cl)ccc1=O)Nc1ccc(CC2CC[C@H]([C@H](O)c3cccnc3)N2)cc1` (stereo partly shown) [Example 66], the EC50 was in the range of 11 to 100 nM.

On to `O=C(Cn1[nH]c(=O)c2ccccc2c1=O)Nc1ccc(CC2CC[C@H]([C@H](O)c3cccnc3)N2)cc1` (stereo partly shown) [Example 67], for which the EC50 lay in the range of 11 to 100 nM.

For the compound `Cc1nonc1CC(=O)Nc1ccc(CC2CC[C@H]([C@H](O)c3cccnc3)N2)cc1` (stereo partly shown) [Example 68], the EC50 is 11 to 100 nM.

`CC1=NN(CC(=O)Nc2ccc(CC3CC[C@H]([C@H](O)c4cccnc4)N3)cc2)C(=O)C1C` (stereo partly shown) [Example 69]: the EC50 was in the range of 11 to 100 nM.

With `CC1=NN(CC(=O)Nc2ccc(CC3CC[C@H]([C@H](O)c4cccnc4)N3)cc2)C(=O)C1` (stereo partly shown) [Example 70], the EC50 was in the range of 11 to 100 nM.

Consider `O=C(CC1NC(=O)NC1=O)Nc1ccc(CC2CC[C@H]([C@H](O)c3cccnc3)N2)cc1` (stereo partly shown) [Example 71], for which the EC50 is 101 to 1000 nM.

`O=C(CC1NC(=S)N(c2ccccc2)C1=O)Nc1ccc(CC2CC[C@H]([C@H](O)c3cccnc3)N2)cc1` (stereo partly shown) [Example 72]: the EC50 lay within 11 to 100 nM.

With `O=C(Cc1n[nH]c(=O)[nH]1)Nc1ccc(CC2CC[C@H]([C@H](O)c3cccnc3)N2)cc1` (stereo partly shown) [Example 73], the EC50 fell in the range of 11 to 100 nM.

For the compound `O=C(Cc1csc(=S)[nH]1)Nc1ccc(CC2CC[C@H]([C@H](O)c3cccnc3)N2)cc1` (stereo partly shown) [Example 74], the EC50 fell in the range of 11 to 100 nM.

For the compound `O=C(Cn1cnc2ccsc2c1=O)Nc1ccc(CC2CC[C@H]([C@H](O)c3cccnc3)N2)cc1` (stereo partly shown) [Example 75], the EC50 fell in the range of 1 to 10 nM.

With `Cn1ncc2ncn(CC(=O)Nc3ccc(CC4CC[C@H]([C@H](O)c5cccnc5)N4)cc3)c(=O)c21` (stereo partly shown) [Example 76], the EC50 was 1 to 10 nM.

Take `O=C(Cc1ccccc1F)Nc1ccc(CC2CC[C@H]([C@H](O)c3cccnc3)N2)cc1` (stereo partly shown) [Example 77]: the EC50 was 11 to 100 nM.

On to `O=C(Cc1c(F)cccc1F)Nc1ccc(CC2CC[C@H]([C@H](O)c3cccnc3)N2)cc1` (stereo partly shown) [Example 78], for which the EC50 was 1 to 10 nM.

Take `O=C(Cc1cccc(F)c1F)Nc1ccc(CC2CC[C@H]([C@H](O)c3cccnc3)N2)cc1` (stereo partly shown) [Example 79]: the EC50 was 11 to 100 nM.

Consider `Cc1nc(CC(=O)Nc2ccc(CC3CC[C@H]([C@H](O)c4cccnc4)N3)cc2)no1` (stereo partly shown) [Example 80], for which the EC50 was 11 to 100 nM.

As to `O=C(Cc1csc(-c2ccccn2)n1)Nc1ccc(CC2CC[C@H]([C@H](O)c3cccnc3)N2)cc1` (stereo partly shown) [Example 81], the EC50 lay within 11 to 100 nM.

On to `O=C(Cc1csc(-c2cccnc2)n1)Nc1ccc(CC2CC[C@H]([C@H](O)c3cccnc3)N2)cc1` (stereo partly shown) [Example 82], for which the EC50 fell in the range of 1 to 10 nM.

`COC(=O)CCC(=O)Nc1ccc(CC2CC[C@H]([C@H](O)c3cccnc3)N2)cc1` (stereo partly shown) [Example 83]: the EC50 is 101 to 1000 nM.

As to `O=C(O)CCC(=O)Nc1ccc(CC2CC[C@H]([C@H](O)c3cccnc3)N2)cc1` (stereo partly shown) [Example 84], the EC50 was 101 to 1000 nM.

`O=C(CN1CCCOC1=O)Nc1ccc(CC2CC[C@H]([C@H](O)c3cccnc3)N2)cc1` (stereo partly shown) [Example 85]: the EC50 lay in the range of 11 to 100 nM.

`CN1CCN(CC(=O)Nc2ccc(CC3CC[C@H]([C@H](O)c4cccnc4)N3)cc2)C1=O` (stereo partly shown) [Example 86]: the EC50 is 101 to 1000 nM.

Regarding `CN1CCCN(CC(=O)Nc2ccc(CC3CC[C@H]([C@H](O)c4cccnc4)N3)cc2)C1=O` (stereo partly shown) [Example 87], the EC50 lay in the range of 101 to 1000 nM.

Regarding `Cc1nn(C)c(O)c1CC(=O)Nc1ccc(CC2CC[C@H]([C@H](O)c3cccnc3)N2)cc1` (stereo partly shown) [Example 88], the EC50 fell in the range of 101 to 1000 nM.

Take `NC(=O)c1ccn(CC(=O)Nc2ccc(CC3CC[C@H]([C@H](O)c4cccnc4)N3)cc2)n1` (stereo partly shown) [Example 89]: the EC50 lay in the range of 11 to 100 nM.

`NC(=O)c1cnn(CC(=O)Nc2ccc(CC3CC[C@H]([C@H](O)c4cccnc4)N3)cc2)c1` (stereo partly shown) [Example 90]: the EC50 lay in the range of 11 to 100 nM.

The assay is the same for the next values; noted with them: Table 3; cAMP production, CHO cells expressing human β3 AR; read-out: Human β3 functional.
Regarding `O=C(Nc1ccc(CC2CC[C@H]([C@H](O)c3cccnc3)N2)cc1)[C@@H]1CCc2nnnn21` (stereo partly shown) [Example 172], the EC50 was in the range of 1 to 10 nM.

On to `O=C(Nc1ccc(CC2CC[C@H]([C@H](O)c3cccnc3)N2)cc1)[C@H]1CCc2nnnn21` (stereo partly shown) [Example 173], for which the EC50 lay in the range of 1 to 10 nM.

The assay is the same for the next values; noted with them: Table 4; cAMP production, CHO cells expressing human β3 AR; read-out: Human β3 functional.
As for `O=S(=O)(Nc1ccc(CC2CC[C@H]([C@H](O)c3cccnc3)N2)cc1)c1ccc(-c2nc(-c3ccc(C(F)(F)F)cc3)cs2)cc1` (stereo partly shown) [Example 223], the EC50 lay within 1 to 10 nM.

`O=S(=O)(Nc1ccc(CC2CC[C@H]([C@H](O)c3cccnc3)N2)cc1)c1ccc(I)cc1` (stereo partly shown) [Example 224]: the EC50 fell in the range of 11 to 100 nM.

For `O=S(=O)(Nc1ccc(CC2CC[C@H]([C@H](O)c3cccnc3)N2)cc1)c1ccc2ccccc2c1` (stereo partly shown) [Example 225], the EC50 lay in the range of 11 to 100 nM.

Staying with this assay, now noted: cAMP production, CHO cells expressing human β3 AR; read-out: human Beta-3 agonist functional activity.
For the compound `O=S(=O)(Nc1ccc(C[C@@H]2CC[C@H]([C@H](O)c3cccnc3)N2)cc1)c1ccc(-c2nc(-c3ccc(C(F)(F)F)cc3)cs2)cc1` [Example 222, N-[4-({(2S,5R)-5-[(R)-hydroxy(pyridin-3-yl)methyl]pyrrolidin-2-yl}methyl)phenyl]-4-{4-[4-(trifluoromethyl)phenyl]-1,3-thiazol-2-yl}benzenesulfonamide, trifluoroacetic acid salt], the EC50 was < 10 nM.
